From PMC7509555, “An In Vitro Study for Evaluating Permeability and Metabolism of Kurarinone” (Evidence-based Complementary and Alternative Medicine : eCAM, 2020)

What was measured:
[1] = Prediction of in vivo hepatic clearance in human from HLM kinetics; type: in vitro ADME
Source text: The following equations were utilized to predict the in vivo hepatic clearance of kurarinone in humans and rats.(1) CLint in vitro=Vmax/Km, (2) […], (3) CLH=QH·fu·CLint in/QH+fu·CLint in vivo, where the SF (scaling factor) represents the milligrams of microsomal protein per gram of the liver multiplied by the grams of liver weight; CLint is the intrinsic metabolic clearance; CLH is hepatic clearance; fu is the free fraction in the blood (no data were available for kurarinone; thus, fu was arbitrarily proposed to be 1); and QH is the hepatic blood flow. The CLH of kurarinone was calculated using equations (1)–(3).

[2] = tested on: monkey liver microsomes (MLMs); assay: Enzyme kinetics of P1 formation from kurarinone in MLMs; type: in vitro ADME
Description: (§1) Samples were prepared in a total volume of 200 μL, containing 0.3 mg/mL protein in human liver microsomes or 15 nM protein in recombinant human supersomes, probe substrates or 50 μM kurarinone, 10 mM MgCl2, 10 mM glucose-6-phosphate, and 1 unit/mL of glucose-6-phosphate dehydrogenase. The reactions were activated by adding NADPH following preincubation at 37°C for 5 min. The reactions were maintained at 37°C for 1 h and terminated by adding 200 μL ice-cold acetonitrile. The supernatant (10 μL) collected from the samples that were centrifuged (20,000 g, 20 min, 4°C) was injected into the HPLC system for analysis. Control incubations devoid of NADPH or kurarinone were performed parallelly to ensure that the produced metabolites were NADPH- or kurarinone-dependent.
(§2) Various concentrations of kurarinone (1–200 μM) were incubated with RLMs, MLMs, PLMs, RAMs, CYP1A2, and CYP2D6 to estimate kinetic parameters. The rest of the other conditions remained the same as described in Section 2.3. […] The apparent Km and Vmax values were calculated from nonlinear regression analysis of experimental data according to the Michaelis–Menten equation, and the results were represented graphically by Eadie–Hofstee plots. All incubations were carried out as triplicate independent experiments, and kinetic constants were recorded as mean ± SD.

[3] = tested on: rat liver microsomes (RLMs); assay: Enzyme kinetics of P1 formation from kurarinone in RLMs; type: in vitro ADME
Description: as §1, §2

[4] = tested on: human liver microsomes (HLMs); assay: Enzyme kinetics of P1 formation from kurarinone in HLMs; type: in vitro ADME
[5] = design: method as in PMID 25703950; conditions: rats, cited from earlier work
UGT1A1 = molecular target: T1, UGT1A1 (Homo sapiens, UniProt P22309); assay: Inhibition of recombinant UGT1A1-catalyzed 4-MU glucuronidation; type: in vitro ADME
T1 construct: purchased BD Gentest Corp. (Woburn, MA, USA)
T1 sequence (P22309 26-533): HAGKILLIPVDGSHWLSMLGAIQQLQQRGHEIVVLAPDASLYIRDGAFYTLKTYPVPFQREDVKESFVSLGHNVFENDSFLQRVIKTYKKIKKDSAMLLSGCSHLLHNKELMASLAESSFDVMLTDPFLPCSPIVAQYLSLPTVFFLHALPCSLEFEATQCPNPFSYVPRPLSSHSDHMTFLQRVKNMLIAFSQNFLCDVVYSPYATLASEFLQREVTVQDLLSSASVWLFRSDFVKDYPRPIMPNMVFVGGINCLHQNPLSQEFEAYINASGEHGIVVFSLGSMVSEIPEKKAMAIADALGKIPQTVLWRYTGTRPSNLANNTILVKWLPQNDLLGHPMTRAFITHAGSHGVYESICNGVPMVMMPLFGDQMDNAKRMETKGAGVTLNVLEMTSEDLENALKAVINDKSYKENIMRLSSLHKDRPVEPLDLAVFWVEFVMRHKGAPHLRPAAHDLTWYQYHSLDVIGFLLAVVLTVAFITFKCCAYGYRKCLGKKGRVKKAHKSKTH
Description: 4-MU, a nonspecific probe substrate for UGT isoforms, was used to explore the inhibition of UGT isoforms by kurarinone. The mixture (200 μL total volume) contained recombinant UGTs (final concentrations: 0.125, 0.05, 0.025, 0.05, 0.025, 0.05, 0.05, 0.25, 0.05, and 0.2 mg/mL for UGT1A1, UGT1A3, UGT1A6, UGT1A7, UGT1A8, UGT1A9, UGT1A10, UGT2B4, UGT2B7, and UGT2B15, respectively), 5 mM UDPGA, 5 mM MgCl2, 50 mM Tris-HCl buffer (pH 7.4), and 4-MU in the absence or presence of various concentrations of kurarinone. The concentrations of 4-MU were as follows: 110 μM for UGT1A1 and UGT1A6, 1200 μM for UGT1A3 and UGT2B4, 15 μM for UGT1A7, 750 μM for UGT1A8, 30 μM for UGT1A9, 80 μM for UGT1A10, 350 μM for UGT2B7, 250 μM for UGT2B15, and 2000 μM for UGT2B17. Kurarinone was dissolved in methanol, and the final concentration of methanol was 0.5% (v/v). Reactions were initiated by adding UDPGA, and incubations were carried out at 37°C in a shaking waterbath for 60 min. The reactions were terminated by addition of 200 μL of ice-cold acetonitrile containing 7-hydroxycoumarin (100 μM) as the internal standard. The incubation mixture was then centrifuged at 20,000 ×g for 20 min to obtain the supernatant, and an aliquot of supernatant (20 μL) was transferred to an autoinjector vial for HPLC analysis.

percentage of CLH versus hepatic blood flow (QH) ([1]; human): 81.27%
predicted hepatic clearance CLH ([1]; humans, from HLM kinetic parameters of P1, fu assumed 1): 16.82 mL/min/kg
clearance category based on CLH projected from in vitro data ([1]; in humans, high-clearance = >70% liver blood flow): high-clearance
Vmax of P1 formation [2]: 4.83 ± 0.14 nmol·min^−1·mg^−1 protein
Km ([2]; kurarinone 1–200 μM): 21 ± 3.42 µM
Vmax of P1 formation [3]: 3.34 ± 0.19 nmol·min^−1·mg^−1 protein
Km ([3]; kurarinone 1–200 μM): 18.1 ± 3.91 µM
Vmax of P1 formation [4]: 1.56 ± 0.24 nmol·min^−1·mg^−1 protein
Km ([4]; kurarinone 1–200 μM): 22 ± 4.93 µM
inhibition type against UGT1A1 (UGT1A1; Dixon and Lineweaver–Burk plots): noncompetitive
inhibition at 60 min, 100 μM (UGT1A1; human, recombinant UGT1A1, pH 7.4, probe 4-MU (110 μM), 100 μM kurarinone, 4-MU glucuronidation, recombinant UGT): > 90%
IC50 (UGT1A1; recombinant UGT1A1, 4-MU glucuronidation, read-out: IC50 against UGT1A1): 13.6 µM
Ki (UGT1A1; second plot of slopes from Lineweaver–Burk plots): 13 µM
SMILES: C=C(C)[C@H](CC=C(C)C)Cc1c(O)cc(OC)c2c1O[C@H](c1ccc(O)cc1O)CC2=O [Kurarinone]
t1/2 ([5]; intravenous 10 mg/kg): 1.81 h
Cmax [5]: 1668.01 ng/mL
